# How the values were obtained:
# [1] = Stability in solution (UV–vis, ESI–MS), metal-free; format: physicochemical; conditions: for k, metal-free (rate of decay of the absorbance peak) / t1/2, metal-free / Stability in solution: 50 μM; for Stability in solution: metal-free, HEPES pH 7.4, 37 °C, 5 h
# Experimental: (§1) The stability of 1–4 (50 μM) in the absence and presence of CuCl2 (25 μM) was monitored every 10 min using UV–vis for 5 h in buffer ([…], pH 7.4, […]; 1% DMSO) at 37 °C. The resulting spectra were corrected for baseline shifts at 800 nm and the half-life and rate of decay of the absorbance at 250, 385 and 400 nm for 4, [Cu(II)+1], and [Cu(II)+3], respectively, was calculated using the first-order exponential decay function as implemented in Origin 9.1 (OrginLab Corp., Northampton, MA, USA). Additionally, the species present were identified using ESI–MS. Samples containing 1–4 (50 μM) with or without CuCl2 (25 μM) were incubated in ddH2O (1% DMSO) at 37 °C for the selected time points before being freshly frozen using liquid nitrogen and stored at −80 °C until they were thawed immediately before measurement.
# [2] = Parallel artificial membrane permeability assay adapted for BBB (PAMPA-BBB); format: in vitro ADME; conditions: 25 μM, pH 7.4, 4 h
# Experimental: PAMPA-BBB experiments were conducted using the PAMPA Explorer kit (pION Inc., Billerica, MA, USA) using previously reported protocols. Compounds (25 μM, 200 μl) in pH 7.4 Prisma HT buffer (pION) were added to the wells of a donor plate (number of replicates=12). The polyvinylidene fluoride (PVDF, […]) filter membrane on the acceptor plate was coated with BBB-1 lipid formulation (5 μl, pION). The acceptor plate was placed on top of the donor plate. Brain sink buffer (BSB, 200 μl, pION) was added to each well of the acceptor plate and was incubated for 4 h at ambient temperature without stirring. UV–vis spectra of the solutions in the reference, acceptor, and donor plates were measured using a microplate reader. The PAMPA Explorer software v. 3.5 (pION) was used to calculate the −logPe values for compounds. CNS±designations were assigned by comparison with compounds that were identified in previous reports.
# [3] = Stability in solution (UV–vis, ESI–MS) in the presence of Cu(II); format: physicochemical; conditions: Cu 25 μM; for half-life at 50 μM: HEPES buffer with CuCl2, pH 7.4, compound 50 μM, read-out: t1/2, + Cu(II); for half-life at 50 μM / k, + Cu(II) (rate of decay of the absorbance peak) / t1/2, + Cu(II): HEPES pH 7.4, 37 °C
# Experimental: as §1
# Cu(II)–Aβ40/Aβ42 = experiment: Aβ aggregation inhibition/disaggregation experiments (gel/western blot, TEM), Cu(II); format: biochemical; conditions: Aβ 25 μM, compound 50 μM, 37 °C, 24 h; gel/western blot and TEM
# Experimental: (§2) The ability of 1–4 to control the aggregation of both metal-free Aβ and metal-Aβ in inhibition (Fig. 2) and disaggregation experiments (Supplementary Fig. 1) was evaluated using the two major Aβ isoforms (Aβ40/Aβ42)[1][2][3][6][16] found in the AD-affected brain. Molecular weight (MW) distributions and morphologies of the resulting Aβ species were determined by gel electrophoresis followed by western blotting (gel/western blot) and transmission electron microscopy (TEM). Generally, under the experimental conditions employed herein, compound-free Aβ samples with and without metal ions assemble into a distribution of large aggregates that are too big to penetrate into the gel matrix, which yields very little smearing in the gel/western blots, but they can be visualized by TEM. The administration of compounds, able to interact with Aβ, inhibit the formation of high MW aggregates, and/or disassemble preformed aggregates, typically generates smaller-sized Aβ species that can enter into the gel and produce a substantial amount of streaking compared with the samples containing Aβ only.
# Before experiments, Aβ40 or Aβ42 was dissolved in ammonium hydroxide (NH4OH; 1% v/v, aq). The resulting solution was aliquoted, lyophilized overnight and stored at −80 °C. A stock solution of Aβ was then prepared by dissolving lyophilized peptide in 1% NH4OH (10 μl) and diluting with ddH2O. The concentration of the solution was determined by measuring the absorbance of the solution at 280 nm (ɛ=1,450 M^–1 cm^–1 for Aβ40; ɛ=1,490 M^–1 cm^–1 for Aβ42). The peptide stock solution was diluted to a final concentration of 25 μM in Chelex-treated buffered solution containing HEPES ([…]; pH 6.6 for Cu(II) samples; pH 7.4 for metal-free and Zn(II) samples) and NaCl ([…]). For the inhibition studies, compounds (final concentration 50 μM, 1% v/v dimethyl sulfoxide (DMSO)) were added to the sample of Aβ (25 μM) in the absence and presence of a metal chloride salt (CuCl2 or ZnCl2; 25, 50, 100 or 125 μM) followed by incubation at 37 °C with constant agitation for 24 h. For the disaggregation studies, Aβ with and without a metal chloride salt was incubated for 24 h at 37 °C with constant agitation to generate preformed Aβ aggregates. The resulting samples were then treated with compounds (50 μM) and incubated with constant agitation for additional 24 h.
# The Aβ samples from in vivo or in vitro experiments were analysed by gel electrophoresis followed by western blotting using an anti-Aβ antibody (6E10)[24][25][27][28][29]. Samples (10 μl) were separated on a 10–20% Tris-tricine gel (Invitrogen, Grand Island, NY, USA). […]
# Zn(II)–Aβ40/Aβ42 = experiment: Aβ aggregation inhibition/disaggregation experiments (gel/western blot, TEM), Zn(II); format: biochemical; conditions: Aβ 25 μM, compound 50 μM, 37 °C, 24 h; gel/western blot and TEM
# Experimental: as §2
# Before experiments, Aβ40 or Aβ42 was dissolved in ammonium hydroxide (NH4OH; 1% v/v, aq). The resulting solution was aliquoted, lyophilized overnight and stored at −80 °C. A stock solution of Aβ was then prepared by dissolving lyophilized peptide in 1% NH4OH (10 μl) and diluting with ddH2O. The concentration of the solution was determined by measuring the absorbance of the solution at 280 nm (ɛ=1,450 M^–1 cm^–1 for Aβ40; ɛ=1,490 M^–1 cm^–1 for Aβ42). The peptide stock solution was diluted to a final concentration of 25 μM in Chelex-treated buffered solution containing HEPES ([…]; pH 6.6 for Cu(II) samples; pH 7.4 for metal-free and Zn(II) samples) and NaCl (150 μM). […]
# The Aβ samples from in vivo or in vitro experiments were analysed by gel electrophoresis followed by western blotting using an anti-Aβ antibody (6E10)[24][25][27][28][29]. […]
# [4] = HEPES pH 7.4, 150 μM NaCl, 37 °C
# [5] = HEPES pH 7.4, 150 μM NaCl, 37 °C, absorbance peak decay
−logPe [2],half-life at 50 μM [3] [min],"half-life at 50 μM ([1]; HEPES buffer, pH 7.4, 50 μM, HEPES pH 7.4, 150 μM NaCl, 37 °C, absorbance peak decay, read-out: t1/2, metal-free) [min]",Compound,"k, metal-free (rate of decay of the absorbance peak) [1, 4]","t1/2, metal-free [1, 5]",Stability in solution [1],"k, + Cu(II) (rate of decay of the absorbance peak) ([3]; compound 50 μM)","t1/2, + Cu(II) ([3]; compound 50 μM)",Modulation of Cu(II)-induced Aβ aggregation (Cu(II)–Aβ40/Aβ42),Modulation of Zn(II)-induced Aβ aggregation (Zn(II)–Aβ40/Aβ42),"Stability of the complex with Cu(II) ([3]; compound 50 μM, 5 h)"
4.2(8),–,–,"COc1cc(NCc2ccccn2)cc(OC)c1 [compound 2, 3,5-dimethoxy-N-(pyridin-2-ylmethyl)aniline]",too slow to accurately measure the rate,No noticeable spectral changes were observed over 5 h,stable over 5 h,too slow to accurately measure the rate,No noticeable spectral changes were observed over 5 h,modulating activity at higher Cu(II) concentrations,–,without any further transformations over the course of 5 h
4.2(2),53 ± 3,–,"CN(C)c1ccc(NCc2ccc3ccccc3n2)cc1 [compound 3, N^1,N^1-dimethyl-N^4-(quinolin-2-ylmethyl)benzene-1,4-diamine]",too slow to accurately measure the rate,No noticeable spectral changes were observed over 5 h,changes in its Ultraviolet-Visible (UV-vis) spectra after 5 h of incubation occurring at a very slow rate,0.013 ± 0.001 min⁻¹,~50 min,modulates Aβ aggregation involved by both Cu(II) and Zn(II),modulates Aβ aggregation involved by both Cu(II) and Zn(II),–
4.9(0),< 1,43 ± 5,"CN(C)c1ccc(NCc2ccc[nH]2)cc1 [compound 4, N^1-((1H-pyrrol-2-yl)methyl)-N^4,N^4-dimethylbenzene-1,4-diamine]",0.016 ± 0.004 min⁻¹,~40 min,unstable,too rapidly to measure,–,redirect both Cu(II)- and Zn(II)-induced Aβ aggregation,redirect both Cu(II)- and Zn(II)-induced Aβ aggregation,–

Compound,−logPe [2],half-life at 50 μM [3] [min],"half-life at 50 μM ([1]; HEPES buffer, pH 7.4, 50 μM, HEPES pH 7.4, 150 μM NaCl, 37 °C, absorbance peak decay, read-out: t1/2, metal-free) [min]","k, metal-free (rate of decay of the absorbance peak) [1, 4]","t1/2, metal-free [1, 5]",Stability in solution [1],"k, + Cu(II) (rate of decay of the absorbance peak) ([3]; compound 50 μM)","t1/2, + Cu(II) ([3]; compound 50 μM)",Modulation of Cu(II)-induced Aβ aggregation (Cu(II)–Aβ40/Aβ42),Modulation of Zn(II)-induced Aβ aggregation (Zn(II)–Aβ40/Aβ42),"Stability of the complex with Cu(II) ([3]; compound 50 μM, 5 h)"
"Nc1ccc(NCc2ccccn2)cc1 [compound 1, N^1-(pyridin-2-ylmethyl)benzene-1,4-diamine]",5.0(1),8 ± 3,–,too slow to accurately measure the rate,No noticeable spectral changes were observed over 5 h,stable over 5 h,0.09 ± 0.03 min⁻¹,~5 min,redirect Cu(II)-promoted Aβ40 and Aβ42 aggregation,did not show any noticeable activity,–
